Where “and” joins values, the source holds several entries; their conditions need not be identical. Equal entries are not always repeated.
System: patients with relapsed/refractory T Cell Lymphoma
Experiment: Safety assessment (adverse events per CTCAE v4.03, DLT/MTD) in phase I/Ib study
Type: in vivo, human
Description: Protocol defined hematological or non-hematological toxicity was considered dose-limiting if it occurred during the first cycle (within the first 28 d) and was considered related to Tenalisib. Hematological DLTs was defined as Grade 4 anemia; Grade 4 neutropenia for >7 days, or Grade ≥3 febrile neutropenia with fever >38.5 °C [101 °F]; Grade 4 thrombocytopenia for >7 days, or Grade ≥3 thrombocytopenia associated with Grade >2 bleeding.
Safety assessment included adverse event (AE) and serious adverse events (SAE) as per Common Terminology Criteria for Adverse Events (CTCAE), Version 4.03. During dose escalation, safety assessments were performed at weekly intervals during Cycle 1 and Cycle 2 and at two weekly intervals during Cycle 3 and 4. After completion of Cycle 4, safety assessments were performed on Day 1 of each subsequent cycle. In dose expansion phase, all safety assessments were performed on Day 1 of each cycle.

[1] = Relationship-all, Dose Expansion (N = 39)
[2] = Relationship-all, Total (N = 58)

Structure (SMILES): CC[C@H](Nc1ncnc2[nH]cnc12)c1oc2ccccc2c(=O)c1-c1cccc(F)c1 [Tenalisib]
- Pyrexia: patients with event [1]: 9 (23.1%) n (%)
- Rash: count of events [1]: 6
- Rash: patients with event [1]: 3 (7.7%) n (%)
- Tachycardia: count of events [1]: 3
- Tachycardia: patients with event [1]: 3 (7.7%) n (%)
- Vomiting: count of events [1]: 6
- Vomiting: patients with event [1]: 5 (12.8%) n (%)
- Abdominal pain: count of events [2]: 9
- Abdominal pain: patients with event [2]: 8 (13.8%) n (%)
- Alanine aminotransferase increased: count of events [2]: 33
- Alanine aminotransferase increased: patients with event [2]: 20 (34.5%) n (%)
- Anemia: count of events [2]: 16
- Anemia: patients with event [2]: 9 (15.5%) n (%)
- Aspartate aminotransferase increased: count of events [2]: 37
- Aspartate aminotransferase increased: patients with event [2]: 21 (36.2%) n (%)
- Blood creatinine increased: count of events [2]: 7
- Blood creatinine increased: patients with event [2]: 7 (12.1%) n (%)
- Blood thyroid stimulating hormone increased: count of events [2]: 7
- Blood thyroid stimulating hormone increased: patients with event [2]: 6 (10.3%) n (%)
- Constipation: count of events [2]: 10
- Constipation: patients with event [2]: 9 (15.5%) n (%)
- Cough: count of events [2]: 16
- Cough: patients with event [2]: 13 (22.4%) n (%)
- Decreased appetite: count of events [2]: 13
- Decreased appetite: patients with event [2]: 12 (20.7%) n (%)
- Dehydration: count of events [2]: 18
- Dehydration: patients with event [2]: 13 (22.4%) n (%)
- Diarrhea: count of events [2]: 25
- Diarrhea: patients with event [2]: 19 (32.8%) n (%)
- Dizziness: count of events [2]: 12
- Dizziness: patients with event [2]: 10 (17.2%) n (%)
- Dry skin: count of events [2]: 8
- Dry skin: patients with event [2]: 7 (12.1%) n (%)
- Dyspnea: count of events [2]: 7
- Dyspnea: patients with event [2]: 7 (12.1%) n (%)
- Fatigue: count of events [2]: 27
- Fatigue: patients with event [2]: 26 (45%) n (%) and 26 (44.8%) n (%)
- Gamma-glutamyl transferase increased: count of events [2]: 11
- Gamma-glutamyl transferase increased: patients with event [2]: 8 (13.8%) n (%)
- Grade 3/4 Alanine aminotransferase increased: count of events [2]: 12
- Grade 3/4 Alanine aminotransferase increased: patients with event [2]: 11 (19.0%) n (%)
- Grade 3/4 Anemia: count of events [2]: 8
- Grade 3/4 Anemia: patients with event [2]: 5 (8.6%) n (%)
- Grade 3/4 Aspartate aminotransferase increased: count of events [2]: 12
- Grade 3/4 Aspartate aminotransferase increased: patients with event [2]: 11 (19.0%) n (%)
- Grade 3/4 Fatigue: count of events [2]: 4
- Grade 3/4 Fatigue: patients with event [2]: 3 (5.2%) n (%)
- Grade 3/4 Hyponatremia: count of events [2]: 4
- Grade 3/4 Hyponatremia: patients with event [2]: 4 (6.9%) n (%)
- Grade 3/4 Neutropenia: count of events [2]: 4
- Grade 3/4 Neutropenia: patients with event [2]: 4 (6.9%) n (%)
- Grade 3/4 Thrombocytopenia: count of events [2]: 3
- Grade 3/4 Thrombocytopenia: patients with event [2]: 3 (5.2%) n (%)
- Headache: count of events [2]: 13
- Headache: patients with event [2]: 10 (17.2%) n (%)
- Hypokalemia: count of events [2]: 10
- Hypokalemia: patients with event [2]: 7 (12.1%) n (%)
- Hyponatremia: count of events [2]: 9
- Hyponatremia: patients with event [2]: 8 (13.8%) n (%)
- Insomnia: count of events [2]: 7
- Insomnia: patients with event [2]: 6 (10.3%) n (%)
- Muscle spasms: count of events [2]: 10
- Muscle spasms: patients with event [2]: 9 (15.5%) n (%)
- Nausea: count of events [2]: 16
- Nausea: patients with event [2]: 15 (25.9%) n (%)
- Pruritus: count of events [2]: 10
- Pruritus: patients with event [2]: 9 (15.5%) n (%)
- Psychiatric disorders: count of events [2]: 18
- Psychiatric disorders: patients with event [2]: 11 (19.0%) n (%)
- Pyrexia: count of events [2]: 21
- Pyrexia: patients with event [2]: 13 (22.4%) n (%)
- Rash: count of events [2]: 10
- Rash: patients with event [2]: 6 (10.3%) n (%)
- Tachycardia: count of events [2]: 9
- Tachycardia: patients with event [2]: 8 (13.8%) n (%)
- Vomiting: count of events [2]: 11
- Vomiting: patients with event [2]: 9 (15.5%) n (%)
- Fatigue, most frequently reported TEAE (all patients): 45%
- Transaminase elevations, most frequently reported related TEAE (all patients): 33%
- Late onset toxicities like colitis, pneumonitis, and opportunistic infections (also in patients treated for more than six months): not seen
- Alanine aminotransferase increased: count of events (human, in vivo): 13
- Alanine aminotransferase increased: patients with event (human, in vivo): 6 (31.6%) n (%)
- Anemia, Grade 3 TEAE (human, in vivo): 8.6%
- Anemia: count of events (human, in vivo): 1
- Anemia: patients with event (human, in vivo): 1 (5.3%) n (%)
- Aspartate aminotransferase increased: count of events (human, in vivo): 15
- Aspartate aminotransferase increased: patients with event (human, in vivo): 6 (31.6%) n (%)
- Blood alkaline phosphatase increased: count of events (human, in vivo): 1
- Blood alkaline phosphatase increased: patients with event (human, in vivo): 1 (5.3%) n (%)
- Blood creatinine increased: patients with event (human, in vivo): 1 (5.3%) n (%)
- Blood thyroid stimulating hormone increased: count of events (human, in vivo): 2
- Blood thyroid stimulating hormone increased: patients with event (human, in vivo): 2 (10.5%) n (%)
- Constipation: count of events (human, in vivo): 5
- Constipation: patients with event (human, in vivo): 4 (21.1%) n (%)
- Cough: count of events (human, in vivo): 7
- Cough: patients with event (human, in vivo): 6 (31.6%) n (%)
- Decreased appetite: count of events (human, in vivo): 5
- Decreased appetite: patients with event (human, in vivo): 5 (26.3%) n (%)
- Discontinuation due to adverse events (human, in vivo): 9%
- Dry skin: count of events (human, in vivo): 2
- Dry skin: patients with event (human, in vivo): 2 (10.5%) n (%)
- Dyspepsia: count of events (human, in vivo): 1
- Dyspepsia: patients with event (human, in vivo): 1 (5.3%) n (%)
- Dyspnea: count of events (human, in vivo): 5
- Dyspnea: patients with event (human, in vivo): 5 (26.3%) n (%)
- Erythema: count of events (human, in vivo): 1
- Erythema: patients with event (human, in vivo): 1 (5.3%) n (%)
- Gamma-glutamyl transferase increased: count of events (human, in vivo): 2
- Gamma-glutamyl transferase increased: patients with event (human, in vivo): 2 (10.5%) n (%)
- Gamma-glutamyltransferase increased: count of events (human, in vivo): 2
- Gamma-glutamyltransferase increased: patients with event (human, in vivo): 2 (10.5%) n (%)
- Grade 3/4 Alanine aminotransferase increased: count of events (human, in vivo): 7
- Grade 3/4 Alanine aminotransferase increased: patients with event (human, in vivo): 6 (15.4%) n (%)
- Grade 3/4 Anemia: count of events (human, in vivo): 6
- Grade 3/4 Anemia: patients with event (human, in vivo): 3 (7.7%) n (%)
- Grade 3/4 Aspartate aminotransferase increased: count of events (human, in vivo): 8
- Grade 3/4 Aspartate aminotransferase increased: patients with event (human, in vivo): 7 (17.9%) n (%)
- Grade 3/4 Fatigue: count of events (human, in vivo): 3
- Grade 3/4 Fatigue: patients with event (human, in vivo): 2 (5.1%) n (%)
- Grade 3/4 Hyponatremia: count of events (human, in vivo): 2
- Grade 3/4 Hyponatremia: patients with event (human, in vivo): 2 (5.1%) n (%)
- Grade 3/4 Neutropenia: count of events (human, in vivo): 2
- Grade 3/4 Neutropenia: patients with event (human, in vivo): 2 (5.1%) n (%)
- Grade 3/4 Thrombocytopenia: count of events (human, in vivo): 2
- Grade 3/4 Thrombocytopenia: patients with event (human, in vivo): 2 (5.1%) n (%)
- Headache: count of events (human, in vivo): 4
- Headache: patients with event (human, in vivo): 3 (15.8%) n (%)
- Hypokalemia: count of events (human, in vivo): 5
- Hypokalemia: patients with event (human, in vivo): 4 (21.1%) n (%)
- Hyponatremia, Grade 3 TEAE (human, in vivo): 6.9%
- Hyponatremia: count of events (human, in vivo): 4
- Hyponatremia: patients with event (human, in vivo): 4 (21.1%) n (%)
- Insomnia: count of events (human, in vivo): 3
- Insomnia: patients with event (human, in vivo): 3 (15.8%) n (%)
- Neutropenia, Grade 3 TEAE (human, in vivo): 6.9%
- Neutropenia: count of events (human, in vivo): 2
- Number of related ≥Grade 3 AEs (human, in vivo): 12
- Patients discontinued because of TEAEs (human, in vivo): 14%
- Patients with SAEs (human, in vivo): 22 (38%) n (%)
- Patients with at least one TEAE (human, in vivo): 57 (98%) n (%)
- Patients with related AEs (human, in vivo): 18 (64%) n (%)
- Patients with related Grade 4 TEAEs (human, in vivo): 5.2%
- Patients with related ≥Grade 3 AEs (human, in vivo): 9 (32%) n (%)
- Pruritus: count of events (human, in vivo): 5
- Pruritus: patients with event (human, in vivo): 4 (21.1%) n (%)
- Psychiatric disorders: count of events (human, in vivo): 6
- Psychiatric disorders: patients with event (human, in vivo): 4 (21.1%) n (%)
- Pyrexia: count of events (human, in vivo): 4
- Pyrexia: patients with event (human, in vivo): 4 (21.1%) n (%)
- Rash: count of events (human, in vivo): 4
- Rash: patients with event (human, in vivo): 3 (15.8%) n (%)
- SAEs gastrointestinal disorders, patients (human, in vivo): 9%
- SAEs related to infections, patients (human, in vivo): 16%
- Tachycardia: count of events (human, in vivo): 6
- Tachycardia: patients with event (human, in vivo): 5 (26.3%) n (%)
- Transaminase elevation, related Grade ≥3 TEAE (human, in vivo): 21%
- Deaths related to drug (in vivo): none of them were related to Tenalisib
- Dose-limiting toxicities (DLT) (in vivo): no DLTs
- Fatal outcome of related TEAEs (in vivo): None of the related TEAEs led to a fatal outcome
- Grade 4 related TEAEs (in vivo): two events of ALT increase and one event of sepsis
- Number of SAEs assessed to be related (in vivo): six
- Number of SAEs reported (in vivo): Thirty-seven
- Deaths reported in the study (seven deaths): 12%

Reference: publication PMC7463651, “Phase I/Ib Study of Tenalisib (RP6530), a Dual PI3K δ/γ Inhibitor in Patients with Relapsed/Refractory T-Cell Lymphoma” (Cancers, 2020)
